Target: T1, EGFR (L858R & T790M) (Homo sapiens, UniProt P00533, L858R/T790M)
T1 construct: GST; purchased Proqinase
Experiment: EGFR (L858R & T790M) inhibition assay, HTRF method
Conditions: biochemical HTRF; EGFR (T790M/L858R) 2.5 nM, ATP 5 μM, 60 min room temperature
Experimental: Example 25: Biological Activity: EGFR T790M Assay Protocol
The objective of the experiment is to find the IC50 for the compounds using HTRF method.
Reagents for Enzyme Assay:
1. Enzyme Assay Buffer: 60 mM HEPES (pH 7.4), 50 mM NaCl, 20 mM MgCl2, 5 mM MnCl2, filter using 0.2 µm pore size, store at 4° C.
Supplements (add fresh to the enzyme buffer): Make 1M DTT stock, 5% BSA stock and 0.1M Na3OV4 stored at 4° C. Enzyme assay buffer 50 ml, 1 M DTT 100 μl, 5% BSA 500 μl, 0.1M Na3OV4 50 μl.
2. GST-hEGFR (L858R), active: EGFR (T790M/L858R), active (Proqinase), 3.6 μM stock; 2.5 nM in final assay.
3. Gastrin Precusor-Biotinylated: Gastrin precursor (Tyr87) biotinylated peptide (EEAY*GWM), Cell Signaling Tech 1310, Lot-7, Want final 0.5 μM in assay
4. ATP: 10 mM stock in 100 μl Enzyme assay buffer pH 7.4 prepared freshly, want 5 μM in final assay.
5. Test compounds: Dissolve powders in 100% DMSO to a final stock concentration of 10 mM (volume in μL to add for 10 mM=mg powder×10^5/MW). Final comp concentration in the assay plate is starting at 10 μM.
1. HTRF buffer: 50 mM Tris-HCl, pH-7.5, 100 mM NaCl, 0.1% BSA, 0.05% Tween20, 0.5 mM EDTA, filter using 0.2 µm pore size, store at 4° C.
Phycolink® Streptavidin-Allophycocyanin (SA-APC) Prozyme, Cat. #PJ25S, Lot #896 085, 2.06 mg/mL, APC concentration is 11.6 μM, streptavidin concentration is 15.5 μM. Want 12 nM final in assay (based on streptavidin concentration).
2. Europium-W1024-PT-66 Anti Phospho Tyrosine Antibody: Perkin Elmer (AD0068), monoclonal IgG1 that recognizes phospho tyrosine peptide 100 μg/ml stock. Want 0.1 nM final in assay.
• 1. Make the compound dilution by TECAN as per the above scheme. • 2. Add 16 μl of diluted compound to the assay plate by using TECAN • 3. Add 10 μl of enzyme mix to each well except mins. • 4. Add 20 μl of substrate and ATP mix into each well of the assay plate manually. • 5. Incubate the plate at room temperature for 60 min with shaking. • 6. Meanwhile prepare the HTRF mix and add 75 μl to the HTRF plate. • 7. When the incubation is over, transfer 10 μl of the reaction mixture to the HTRF assay plate and incubate for 30 min at room temperature with shaking. • 8. Take the reading in Pherastar (ext 337 nm, em 665 & 620 nm). • 9. Analyze the results using Graphpad prism after calculation the z factor, signal window and % inhibition to get the IC50.
Compounds having IC50<10 nM are designated as “A”; 10-100 nM are designated as “B”; and >100 nM as “C”.

T1 sequence (P00533 25-1210 T790M/L858R): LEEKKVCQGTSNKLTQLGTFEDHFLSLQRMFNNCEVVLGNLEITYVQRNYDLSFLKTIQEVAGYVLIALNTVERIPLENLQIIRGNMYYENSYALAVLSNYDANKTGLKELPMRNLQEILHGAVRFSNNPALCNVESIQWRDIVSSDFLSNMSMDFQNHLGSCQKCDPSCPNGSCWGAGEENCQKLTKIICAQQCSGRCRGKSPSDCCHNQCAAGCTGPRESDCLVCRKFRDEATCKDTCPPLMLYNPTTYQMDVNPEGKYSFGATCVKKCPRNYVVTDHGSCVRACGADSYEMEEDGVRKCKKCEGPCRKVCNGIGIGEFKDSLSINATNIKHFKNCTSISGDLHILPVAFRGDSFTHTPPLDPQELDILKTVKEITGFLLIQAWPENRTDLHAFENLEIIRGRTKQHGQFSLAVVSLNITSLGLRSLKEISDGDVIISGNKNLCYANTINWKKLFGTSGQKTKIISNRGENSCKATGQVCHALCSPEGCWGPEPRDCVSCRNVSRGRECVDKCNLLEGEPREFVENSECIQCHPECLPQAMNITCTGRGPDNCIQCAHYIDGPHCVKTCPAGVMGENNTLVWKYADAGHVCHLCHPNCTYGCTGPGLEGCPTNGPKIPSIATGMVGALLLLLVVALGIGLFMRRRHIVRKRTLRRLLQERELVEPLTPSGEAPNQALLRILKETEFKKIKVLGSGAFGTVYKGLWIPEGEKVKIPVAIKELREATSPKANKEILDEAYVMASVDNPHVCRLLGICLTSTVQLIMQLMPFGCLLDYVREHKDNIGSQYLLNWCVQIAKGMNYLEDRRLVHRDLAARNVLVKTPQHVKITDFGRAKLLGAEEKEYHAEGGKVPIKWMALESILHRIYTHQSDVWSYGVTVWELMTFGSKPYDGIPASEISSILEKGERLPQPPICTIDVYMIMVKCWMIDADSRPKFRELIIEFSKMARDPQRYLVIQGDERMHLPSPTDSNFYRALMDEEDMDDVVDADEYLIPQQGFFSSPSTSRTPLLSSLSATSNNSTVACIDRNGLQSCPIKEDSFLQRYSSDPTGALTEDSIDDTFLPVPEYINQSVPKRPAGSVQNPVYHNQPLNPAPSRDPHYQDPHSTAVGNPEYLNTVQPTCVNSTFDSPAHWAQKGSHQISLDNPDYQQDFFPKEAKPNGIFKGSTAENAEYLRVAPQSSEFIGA

SMILES | IC50
C=CC(=O)NC1CCCC(Nc2nc(Nc3cnn(C)c3)ncc2C)C1 (stereo not shown) [Compound I-100, N-(3-((5-methyl-2-((1-methyl-1H-pyrazol-4-yl)amino)pyrimidin-4-yl)amino)cyclohexyl)acrylamide] | > 0.1 µM
C=CC(=O)Nc1ccc(F)c(Nc2nc(Nc3cn(C)nc3Cl)ncc2Cl)c1 [Compound I-58, N-(3-((5-chloro-2-((3-chloro-1-methyl-1H-pyrazol-4-yl)amino)pyrimidin-4-yl)amino)-4-fluorophenyl)acrylamide] | < 0.01 µM
C=CC(=O)Nc1cccc(Nc2nc(Nc3nnc(N4CCN(C)CC4)s3)ncc2Cl)c1 [Compound I-41, N-(3-((5-chloro-2-((5-(4-methylpiperazin-1-yl)-1,3,4-thiadiazol-2-yl)amino)pyrimidin-4-yl)amino)phenyl)acrylamide] | 0.01 to 0.1 µM
C=CC(=O)Nc1cccc(Nc2nc(Nc3cn(C)nc3C)ncc2Cl)n1 (single isomer, unassigned) [Compound I-73, N-(6-((5-chloro-2-((1,3-dimethyl-1H-pyrazol-4-yl)amino)pyrimidin-4-yl)amino)pyridin-2-yl)acrylamide] | 0.01 to 0.1 µM
C=CC(=O)Nc1cccc(Nc2nc(Nc3cnn(C4CCN(C)CC4)c3)ncc2OC)c1 [Compound I-12, N-(3-((5-methoxy-2-((1-(1-methylpiperidin-4-yl)-1H-pyrazol-4-yl)amino)pyrimidin-4-yl)amino)phenyl)acrylamide] | 0.01 to 0.1 µM
C=CC(=O)Nc1cccc(Nc2nc(Nc3cnn(CCO)c3)ncc2Cl)c1 [Compound I-21, N-(3-((5-chloro-2-((1-(2-hydroxyethyl)-1H-pyrazol-4-yl)amino)pyrimidin-4-yl)amino)phenyl)acrylamide] | < 0.01 µM
C=CC(=O)N1CCCC(Nc2nc(Nc3cnn(C)c3)ncc2Cl)C1 (single isomer, unassigned) [II-2 (Enantiomer 2), 1-(3-((5-chloro-2-((1-methyl-1H-pyrazol-4-yl)amino)pyrimidin-4-yl)amino)piperidin-1-yl)prop-2-en-1-one] | > 0.1 µM
C=CC(=O)Nc1cccc(Oc2nc(Nc3cnn(CCN(C)C)c3)ncc2Cl)c1 [Compound I-80, N-(3-((5-chloro-2-((1-(2-(dimethylamino)ethyl)-1H-pyrazol-4-yl)amino)pyrimidin-4-yl)oxy)phenyl)acrylamide] | 0.01 to 0.1 µM
C/C=C/C(=O)Nc1cccc(Nc2nc(Nc3cnn(C4CCN(C)CC4)c3)ncc2Cl)c1 [Compound I-51, (E)-N-(3-((5-chloro-2-((1-(1-methylpiperidin-4-yl)-1H-pyrazol-4-yl)amino)pyrimidin-4-yl)amino)phenyl)but-2-enamide] | > 0.1 µM
CN1CCC(n2cc(Nc3ncc(Cl)c(Nc4cccc(NC(=O)C=C5CCOCC5)c4)n3)cn2)CC1 [Compound I-26, N-(3-((5-chloro-2-((1-(1-methylpiperidin-4-yl)-1H-pyrazol-4-yl)amino)pyrimidin-4-yl)amino)phenyl)-2-(dihydro-2H-pyran-4(3H)-ylidene)acetamide] | > 0.1 µM
C=CC(=O)Nc1cccc(Nc2nc(Nc3cnn(C)c3C)ncc2Cl)c1 [Compound I-23, N-(3-((5-chloro-2-((1,5-dimethyl-1H-pyrazol-4-yl)amino)pyrimidin-4-yl)amino)phenyl)acrylamide] | > 0.1 µM
C=CC(=O)Nc1ccc(OC2CCOC2)c(Nc2nc(Nc3cnn(C)c3)ncc2Cl)c1 (stereo not shown) [Compound I-54, N-(3-((5-chloro-2-((1-methyl-1H-pyrazol-4-yl)amino)pyrimidin-4-yl)amino)-4-((tetrahydrofuran-3-yl)oxy)phenyl)acrylamide] | > 0.1 µM
C=CS(=O)(=O)Nc1cccc(Nc2nc(Nc3cnn(C)c3)ncc2Cl)c1 [Compound I-65, N-(3-((5-chloro-2-((1-methyl-1H-pyrazol-4-yl)amino)pyrimidin-4-yl)amino)phenyl)ethenesulfonamide] | 0.01 to 0.1 µM
CN1CCC(n2cc(Nc3ncc(Cl)c(Nc4cccc(NC(=O)C=C5CCC(F)(F)CC5)c4)n3)cn2)CC1 [Compound I-25, N-(3-((5-chloro-2-((1-(1-methylpiperidin-4-yl)-1H-pyrazol-4-yl)amino)pyrimidin-4-yl)amino)phenyl)-2-(4,4-difluorocyclohexylidene)acetamide] | > 0.1 µM
C=CC(=O)Nc1cccc(N(C)c2nc(Nc3cnn(C4CCN(C)CC4)c3)ncc2Cl)c1 [Compound I-72, N-(3-((5-chloro-2-((1-(1-methylpiperidin-4-yl)-1H-pyrazol-4-yl)amino)pyrimidin-4-yl)(methyl)amino)phenyl)acrylamide] | 0.01 to 0.1 µM

Second part, the compound after the results:

IC50 | SMILES
0.01 to 0.1 µM | C=CC(=O)Nc1cccc(Nc2nc(Nc3cc(C)no3)ncc2Cl)c1 [Compound I-125, N-(3-((5-chloro-2-((3-methylisoxazol-5-yl)amino)pyrimidin-4-yl)amino)phenyl)acrylamide]
> 0.1 µM | C=CC(=O)Nc1cccc(Oc2nc(Nc3cnn(CC(C)(C)O)c3)ncc2Cl)c1 [Compound I-81, N-(3-((5-chloro-2-((1-(2-hydroxy-2-methylpropyl)-1H-pyrazol-4-yl)amino)pyrimidin-4-yl)oxy)phenyl)acrylamide]
0.01 to 0.1 µM | C=CC(=O)Nc1cccc(Nc2nc(Nc3cnn(C(C)C)c3)ncc2Cl)c1 [Compound I-4, N-(3-((5-chloro-2-((1-isopropyl-1H-pyrazol-4-yl)amino)pyrimidin-4-yl)amino)phenyl)acrylamide]
0.01 to 0.1 µM | C=CC(=O)Nc1cccc(Nc2nc(Nc3cnn(C)c3)ncc2Cl)n1 [Compound I-75, N-(6-((5-chloro-2-((1-methyl-1H-pyrazol-4-yl)amino)pyrimidin-4-yl)amino)pyridin-2-yl)acrylamide]
> 0.1 µM | C=CC(=O)N[C@@H]1CCC[C@H](Nc2nc(Nc3cnn(C)c3)ncc2Cl)C1 (single isomer, unassigned) [I-105 (Enantiomer 4)]
0.01 to 0.1 µM | C#CC(=O)Nc1cccc(Nc2nc(Nc3cnn(C)c3)ncc2Cl)c1 [Compound I-32, N-(3-((5-chloro-2-((1-methyl-1H-pyrazol-4-yl)amino)pyrimidin-4-yl)amino)phenyl)propiolamide]
> 0.1 µM | C=C(F)C(=O)Nc1cccc(Nc2nc(Nc3cnn(C)c3)ncc2Cl)c1 [Compound I-33, N-(3-((5-chloro-2-((1-methyl-1H-pyrazol-4-yl)amino)pyrimidin-4-yl)amino)phenyl)-2-fluoroacrylamide]
0.01 to 0.1 µM | C=CC(=O)Nc1cccc(Nc2nc(Nc3cnn(C4COC4)c3)ncc2Cl)c1 [Compound I-31, N-(3-((5-chloro-2-((1-(oxetan-3-yl)-1H-pyrazol-4-yl)amino)pyrimidin-4-yl)amino)phenyl)acrylamide]
> 0.1 µM | C=CC(=O)Nc1ccc(F)c(Nc2nc(Nc3ncc(Cl)s3)ncc2Cl)c1 [Compound I-120, N-(3-((5-chloro-2-((5-chlorothiazol-2-yl)amino)pyrimidin-4-yl)amino)-4-fluorophenyl)acrylamide]
> 0.1 µM | C=C(C)C(=O)Nc1cccc(Nc2nc(Nc3cnn(C4CCN(C)CC4)c3)ncc2Cl)c1 [Compound I-9, N-(3-((5-chloro-2-((1-(1-methylpiperidin-4-yl)-1H-pyrazol-4-yl)amino)pyrimidin-4-yl)amino)phenyl)methacrylamide]
0.01 to 0.1 µM | C=CC(=O)Nc1cccc(Nc2nc(Nc3ncc(C)s3)ncc2Cl)c1 [Compound I-123, N-(3-((5-chloro-2-((5-methylthiazol-2-yl)amino)pyrimidin-4-yl)amino)phenyl)acrylamide]
> 0.1 µM | C=CC(=O)N1CCC(Nc2nc(Nc3cnn(C)c3)ncc2Cl)CC1 [II-8, 1-(4-((5-chloro-2-((1-methyl-1H-pyrazol-4-yl)amino)pyrimidin-4-yl)amino)piperidin-1-yl)prop-2-en-1-one]
> 0.1 µM | C=CC(=O)NCC1CCCC(Nc2nc(Nc3cnn(C)c3)ncc2Cl)C1 (stereo not shown) [Compound I-108, N-((3-((5-chloro-2-((1-methyl-1H-pyrazol-4-yl)amino)pyrimidin-4-yl)amino)cyclohexyl)methyl)acrylamide]

Source: patent US10273224B2, “Substituted pyrimidine compounds, compositions and medicinal applications thereof” (JUBILANT BIOSYS LIMITED, priority 2013, dated 2019)
